“Also recorded” adds a separate entry of the source.
Legend:
[1] = test system: FSaIIC Murine Fibrosarcoma; details: experimental sarcomas of mice; cited from earlier work
[2] = test system: DS-sarcoma; test: Growth of subcutaneous DS-sarcomas in rats (tumor volume, volume doubling time, growth delay after cyclophosphamide); assay type: in vivo, rat; details: for volume doubling time / impact on tumor growth rate per se: tumors not treated with cyclophosphamide; for impact on tumor growth rate per se: carboplatin four days before implantation, rHuEPO 1000 IU/kg three times per week; for volume doubling time during the regrowth period: after cyclophosphamide; for growth delay following chemotherapy: at the 1.3 ml tumor volume level, cyclophosphamide 60 mg/kg i.p. Day 5
Procedure: (§1) Male Sprague-Dawley rats (Charles River Wiga, Sulzfeld, Germany; body weight 100 to 160 g) housed in our animal care facility were used in the study. Animals were allowed access to food and acidified water ad libitum before and throughout the investigation. All experiments had previously been approved by the regional animal ethics committee and were conducted in accordance with the German Law for Animal Protection and the UKCCCR Guidelines [United Kingdom Coordinating Committee on Cancer Research (UKCCCR) guidelines for the welfare of animals in experimental neoplasia (2 nd edit). Br. J. Cancer, (1998) 77:1-10].
Solid DS-sarcomas were induced by injecting DS-sarcoma cells (0.4 ml approximately 10^4 cells/μl) subcutaneously into the hind food dorsum. […] Tumor volumes were determined by measuring the three orthogonal diameters of the tumor and using an ellipsoid approximation with the formula: V=d1×d2×d3×π/6. From the volume growth curves the volume doubling time was calculated during exponential tumor growth.
(§2) Prolonged anemia was induced by a single injection of carboplatin (Sigma-Aldrich, Steinheim, Germany) at a dose of 50 mg/kg body weight (dissolved in isotonic saline at a concentration of 20 mg/ml) into the tail vein four days before tumor implantation.
(§3) Recombinant human erythropoietin (epoetin alpha, ERYPO 4000®; Janssen-Cilag, Neuss, Germany) in isotonic NaCl solution was administered (1000 IU/kg) three times per week over sixteen days by s.c. injection starting eleven days before tumor implantation. Control animals received equivalent volumes of the solvent (0.5 ml/ kg).
Animals treated with equivalent volumes of the solvent (isotonic saline 6 ml/kg) served as controls.
Group 1 (non-anemic): Animals received cyclophosphamide on Day 5 after tumor implantation.
Group 2 (anemic): Animals treated for four days before tumor implantation with carboplatin for anemia induction. Cyclophosphamide was administered on Day 5 after implantation.
Group 3 (anemic, rHuEPO-treated): Animals treated with rHuEPO three times per week from eleven days before tumor implantation and up until the day of cyclophosphamide application. Carboplatin (for anemia induction) was administered on Day −4 and cyclophosphamide was applied on Day 5.
Controls for all three experimental groups received equivalent volumes of the solvent instead of cyclophosphamide on Day 5 after tumor implantation.
(§4) Results are expressed as means±standard error of the mean (SEM). Differences between the groups were assessed by the two-tailed Wilcoxon test for unpaired samples. The significance level was set at α=5% for all comparisons. For characterizing the effect of chemotherapy on tumor growth, the growth delay induced by cyclophosphamide was calculated.

[3] = test system: Male Sprague-Dawley rats; test: Blood cell parameters (automated hematology analyzer) in rats with carboplatin-induced anemia, with or without rHuEPO; assay type: in vivo, rat; details: for CHb (hemoglobin concentration): day of cyclophosphamide treatment (Day 5 after tumor implantation), carboplatin 50 mg/kg i.v. on Day -4, rHuEPO 1000 IU/kg s.c. three times per week
Procedure: as §1, §2, §3
Besides tumor growth, blood cell parameters were assessed using a multi-parameter, automated hematology analyzer (Ac-T8; Beckman-Coulter, Krefeld, Germany) whereby erythrocyte, white blood cell and platelet counts together with the mean cell volume (MCV) were measured by an impedance technique and the hemoglobin concentration by a photometric method. In addition, the analyzer uses the measured values to calculate several other parameters (e.g., hematocrit, mean corpuscular hemoglobin content [MCH] and mean corpuscular hemoglobin concentration [MCHC]). All measurements were performed using a sample of venous blood (20 μl) taken from a tail vein.
as §4

[4] = test system: experimental tumours; details: in vivo; cited from earlier work
[5] = test system: human ovarian cancer xenographs; details: EPO alone (control group); cited from earlier work
[6] = test system: experimental tumors; details: after correcting anemia; 76% in moderate anemia, 21% before; cited from earlier work
[7] = test system: anemic cancer patients; details: 150 IU/kg t.i.w. vs placebo; after the first month of therapy; platinum or non-platinum chemotherapy; cited from earlier work
[8] = day of cyclophosphamide treatment, mean ± SEM

For `N.N.O=C([O-])C1(C(=O)[O-])CCC1.[Pt+2]` [carboplatin], the “cell kill in oxygenated versus hypoxic tumor areas” value [1] is listed as “more pronounced cell kill”, the volume doubling time [2] is listed as “approximately 1.8 days” and the “impact on tumor growth rate per se” value [2] is listed as “does not affect the growth of DS sarcomas; also recorded: no impact per se on the growth rate of the tumors; also recorded: no effect on the growth rate of DS-sarcomas”. The “CHb (hemoglobin concentration)” value ([3]; mean ± SEM) was 98 g/L, the “CHb (hemoglobin concentration)” value ([3]; mean ± SEM, listed as CARBOPLATIN) was 98 ± 3 g/L and the Hematocrit [3, 8] was 28 ± 1%. The “Mean Corpuscular Hb Concentration (MCHC)” value [3, 8] was 348 ± 5 g/L, the “Mean Corpuscular Hemoglobin (MCH)” value [3, 8] was 22 ± 1 pg and the “Mean Corpuscular Volume (MCV)” value [3, 8] was 63 ± 1 fL. The RBC count [3, 8] was 4.5 ± 0.2 10^6/μl and the “mean cHb” value ([3]; nine days after a single dose of carboplatin 50 mg/kg i.v., start approximately 130 g/l) was “about 100 g/l”.
For `O=P1(N(CCCl)CCCl)NCCCO1` (stereo not drawn) [cyclophosphamide], the “cell kill in oxygenated versus hypoxic tumor areas” value [1] is given as “more pronounced cell kill”, the “volume doubling time during the regrowth period” value ([2]; anemic group) is given as 4.0 days and the “volume doubling time during the regrowth period” value ([2]; non-anemic group) is given as 4.6 days. For the same molecule, the “growth delay following chemotherapy” value ([2]; anemic (carboplatin) group) was 8.6 days, the “growth delay following chemotherapy” value ([2]; non-anemic group) was “approximately 13.3 days” and the growth delay ([2]; single dose 60 mg/kg i.p., stated in the methods, not curative) was “approximately eight to ten”.
For `N[C@@H](Cc1ccc(N(CCCl)CCCl)cc1)C(=O)O` [melphalan], the “cell kill in oxygenated versus hypoxic tumor areas” value [1] is given as “more pronounced cell kill”.
In the case of “rHuEPO: Recombinant human erythropoietin (epoetin alpha, ERYPO 4000; Janssen-Cilag)”, the “effect of correction of anemia on radiosensitivity” value [4] is listed as “able to improve the radiosensitivity”, the “effect of reversing anemia on cytotoxicity of cyclophosphamide chemotherapy” value ([2]; DS sarcomas, anemia cHb=98 g/l) is listed as “significantly increases the cytotoxicity of this chemotherapy” and the “volume doubling time during the regrowth period” value ([2]; rHuEPO-treated animals) is listed as 4.3 days. The “growth delay following chemotherapy” value ([2]; rHuEPO-treated group (carboplatin + rHuEPO)) was “approximately 13.3 days”, the volume doubling time [2] was “approximately 1.8 days” and the “impact on tumor growth rate per se” value [2] was “no impact per se on the growth rate of the tumors; also recorded: no impact on the tumor growth per se”. For the same molecule, the “changes in tumor growth” value [5] was “no changes in tumor growth”, the cHb ([3]; continuous rHuEPO treatment in otherwise untreated rats, within one week) was 153 g/L and the “CHb (hemoglobin concentration)” value ([3]; mean ± SEM) was 137 g/L. The “effect on carboplatin-induced anemia at the time of chemotherapy” value ([3]; rHuEPO for approximately one week prior to carboplatin application) was “prevention (or reversal) of the carboplatin-induced anemia”, the “fraction of hypoxic pO2 values ≦2.5 mmHg” value [6] was 55% and the “effect on hematocrit and transfusion requirements” value [7] was “increase hematocrit and decrease transfusion requirements”.

Source: US20030083250A1, “Anti-tumor chemotherapy by administration of cyclophosphamide and erythropoeitin” (priority 2001, published 2003)
